Values of other authors, collected in article PMC12389355, “Physiologically Based Pharmacokinetic Modeling to Assess Perpetrator and Victim Cytochrome P450 2C Induction Risk” (Pharmaceutics, 2025).
Where two headings read alike, the source gives them in different places.

Columns and labels:
[1] = tested on: CYP2C8; parameters: method as in References column of Tables 3 and 4 ([27]-[44]); details: victim drug; References of Tables 3 and 4 ([27]-[44]); cited from earlier work
[2] = tested on: CYP3A4; details: cited from earlier work; for fm CYP3A4: victim drug, References of Tables 3 and 4 ([27]-[44])
[3] = cited from earlier work
[4] = tested on: CYP2C19; details: cited from earlier work
[5] = tested on: CYP2B6; details: cited from earlier work
[6] = tested on: CYP1A2; details: cited from earlier work
[7] = tested on: CYP2C9; details: cited from earlier work
[8] = victim drug after administration with rifampicin, References of Table 4 ([27]-[43]), DIDB
[9] = victim drug, References of Tables 3 and 4 ([27]-[44])

For `CCc1ccc(CCOc2ccc(CC3SC(=O)NC3=O)cc2)nc1` (stereo not drawn) [Pioglitazone, pioglitazone], the “fm CYP2C8” value [1] is given as 0.56, the “fm CYP3A4” value [2] is given as 0.37 and the “% AUC Reduction (Clinically Observed)” value [3, 8] is given as 56.3%.

In the case of `COC(=O)[C@H](c1ccccc1Cl)N1CCc2sccc2C1` [clopidogrel], the “fm via CYP2C19” value [4] is listed as 0.19, the “fm via CYP2B6” value [5] is listed as 0.06 and the “fm via CYP1A2” value [6] is listed as 0.02.

For `CC(=O)CC(c1ccccc1)c1c(O)c2ccccc2oc1=O` (stereo not drawn) [Warfarin, warfarin], the “fm CYP2C9” value [7, 9] is listed as 0.64.

For `Cc1ncc2n1-c1ccc(Cl)cc1C(c1ccccc1F)=NC2` [Midazolam, midazolam], the “% AUC Reduction (Clinically Observed)” value ([3]; in vivo) is listed as 94.7%.

For `CC(=O)C[C@@H](c1ccccc1)c1c(O)c2ccccc2oc1=O` [S-warfarin], the “fm via CYP3A4” value [2] is listed as 0.05, the “fm via CYP2C9” value [7] is listed as 0.64 and the “fm via CYP2B6” value [5] is listed as 0.12.

For `COc1ccc(Cl)cc1C(=O)NCCc1ccc(S(=O)(=O)NC(=O)NC2CCCCC2)cc1` [Glyburide, glyburide], the “% AUC Reduction (Clinically Observed)” value [3, 8] is listed as 38.9%.

For `COc1ccc2[nH]c([S+]([O-])Cc3ncc(C)c(OC)c3C)nc2c1` (stereo not drawn) [Omeprazole, omeprazole], the “fm CYP2C19” value [4, 9] is listed as 0.68, the “fm CYP3A4” value [2] is listed as 0.32 and the “% AUC Reduction (Clinically Observed)” value [3, 8] is listed as 86.1%.
